The values below come from patent publication EP4722207A1, “OXOISOINDOLINYL-SUBSTITUTED TETRAHYDROPYRIMIDINEDIONE DERIVATIVE AND USE THEREOF” (Gluetacs Therapeutics (Shanghai) Co., Ltd., priority 2023, dated 2024).

Each structure is given as a SMILES string.

Assay [1] concerns the target T1, CK1α (Homo sapiens, UniProt P48729+Q96SW2).
T1 construct: effects of the compounds of the present disclosure on the expression of target proteins in cells; endogenous in cells; host or cells: human PBMCs (hPBMCs)
The experiment in a line: Western-blot assay, substrate protein degradation in hPBMCs: CK1α. The settings on record: compounds at 50 nM and 500 nM, 24 hours. Type of assay: cell-based.

Assay [2] concerns the target T2, IKZF3 (Homo sapiens, UniProt Q96SW2+Q9UKT9).
T2 construct: effects of the compounds of the present disclosure on the expression of target proteins in cells; endogenous in cells; host or cells: human PBMCs (hPBMCs)
The experiment in a line: Western-blot assay, substrate protein degradation in hPBMCs: IKZF3. Type of assay: cell-based. Particulars: compounds at 50 nM and 500 nM, 24 hours.

The test system of assay [3] is MV-4-11. The experiment in a line: Cell viability assay (CellTiter-Meiluncell Luminescent), tumor cell proliferation, MV-4-11. The settings on record: Homo sapiens, MV4-11, 96 h, read-out: inhibitory activity (IC50, nM) against tumor cells proliferation, MV-4-11.
Assay [4] has as its target T3, WEE1 (Homo sapiens, UniProt P30291+Q96SW2).
T3 construct: effects of the compounds of the present disclosure on the expression of target proteins in cells; endogenous in cells; host or cells: human PBMCs (hPBMCs)
The experiment in a line: Western-blot assay, substrate protein degradation in hPBMCs: WEE1. Type of assay: cell-based. Particulars: compounds at 50 nM and 500 nM, 24 hours.

For assay [5], the target named is T4, IKZF2 (Homo sapiens, UniProt Q96SW2+Q9UKS7).
T4 construct: effects of the compounds of the present disclosure on the expression of target proteins in cells; endogenous in cells; host or cells: human PBMCs (hPBMCs)
The experiment in a line: Western-blot assay, substrate protein degradation in hPBMCs: IKZF2. Type of assay: cell-based. Particulars: compounds at 50 nM and 500 nM, 24 hours.

For assay [6], the target named is T5, GSPT1 (Homo sapiens, UniProt P15170+Q96SW2).
T5 construct: effects of the compounds of the present disclosure on the expression of target proteins in cells; endogenous in cells; host or cells: human PBMCs (hPBMCs)
The experiment in a line: Western-blot assay, substrate protein degradation in hPBMCs: GSPT1. Particulars: compounds at 50 nM and 500 nM, 24 hours. Type of assay: cell-based.

For assay [7], the target named is T6, IKZF1 (Homo sapiens, UniProt Q13422+Q96SW2).
T6 construct: effects of the compounds of the present disclosure on the expression of target proteins in cells; endogenous in cells; host or cells: human PBMCs (hPBMCs)
The experiment in a line: Western-blot assay, substrate protein degradation in hPBMCs: IKZF1. Particulars: compounds at 50 nM and 500 nM, 24 hours. Type of assay: cell-based.

T4 sequence (Q9UKS7 whole entry): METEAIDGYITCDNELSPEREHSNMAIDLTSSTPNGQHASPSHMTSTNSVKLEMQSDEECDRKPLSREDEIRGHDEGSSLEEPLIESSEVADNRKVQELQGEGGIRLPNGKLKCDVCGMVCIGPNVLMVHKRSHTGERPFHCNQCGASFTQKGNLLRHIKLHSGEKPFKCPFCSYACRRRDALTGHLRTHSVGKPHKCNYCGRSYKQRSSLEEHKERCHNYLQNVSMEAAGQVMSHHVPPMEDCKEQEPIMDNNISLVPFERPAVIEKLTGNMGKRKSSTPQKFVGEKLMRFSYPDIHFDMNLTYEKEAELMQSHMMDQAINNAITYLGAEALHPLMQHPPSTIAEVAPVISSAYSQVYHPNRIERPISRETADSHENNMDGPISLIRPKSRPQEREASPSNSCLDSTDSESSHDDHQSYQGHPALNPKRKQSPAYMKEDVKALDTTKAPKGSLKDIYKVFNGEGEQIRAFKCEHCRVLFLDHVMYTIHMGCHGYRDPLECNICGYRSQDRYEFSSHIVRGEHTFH
T4 sequence (Q96SW2 whole entry): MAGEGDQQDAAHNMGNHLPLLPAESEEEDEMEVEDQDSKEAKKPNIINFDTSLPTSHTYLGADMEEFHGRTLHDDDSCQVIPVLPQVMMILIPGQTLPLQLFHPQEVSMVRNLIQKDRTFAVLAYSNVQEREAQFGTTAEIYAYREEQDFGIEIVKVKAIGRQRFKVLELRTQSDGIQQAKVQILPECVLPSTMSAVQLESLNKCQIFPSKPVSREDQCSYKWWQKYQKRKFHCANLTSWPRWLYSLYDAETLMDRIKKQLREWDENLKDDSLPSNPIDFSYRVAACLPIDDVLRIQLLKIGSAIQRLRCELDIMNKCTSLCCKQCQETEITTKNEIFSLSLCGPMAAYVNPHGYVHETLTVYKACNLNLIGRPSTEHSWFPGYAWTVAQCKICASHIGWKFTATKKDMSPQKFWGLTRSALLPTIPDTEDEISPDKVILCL
T4 sequence (Q16531 whole entry partner): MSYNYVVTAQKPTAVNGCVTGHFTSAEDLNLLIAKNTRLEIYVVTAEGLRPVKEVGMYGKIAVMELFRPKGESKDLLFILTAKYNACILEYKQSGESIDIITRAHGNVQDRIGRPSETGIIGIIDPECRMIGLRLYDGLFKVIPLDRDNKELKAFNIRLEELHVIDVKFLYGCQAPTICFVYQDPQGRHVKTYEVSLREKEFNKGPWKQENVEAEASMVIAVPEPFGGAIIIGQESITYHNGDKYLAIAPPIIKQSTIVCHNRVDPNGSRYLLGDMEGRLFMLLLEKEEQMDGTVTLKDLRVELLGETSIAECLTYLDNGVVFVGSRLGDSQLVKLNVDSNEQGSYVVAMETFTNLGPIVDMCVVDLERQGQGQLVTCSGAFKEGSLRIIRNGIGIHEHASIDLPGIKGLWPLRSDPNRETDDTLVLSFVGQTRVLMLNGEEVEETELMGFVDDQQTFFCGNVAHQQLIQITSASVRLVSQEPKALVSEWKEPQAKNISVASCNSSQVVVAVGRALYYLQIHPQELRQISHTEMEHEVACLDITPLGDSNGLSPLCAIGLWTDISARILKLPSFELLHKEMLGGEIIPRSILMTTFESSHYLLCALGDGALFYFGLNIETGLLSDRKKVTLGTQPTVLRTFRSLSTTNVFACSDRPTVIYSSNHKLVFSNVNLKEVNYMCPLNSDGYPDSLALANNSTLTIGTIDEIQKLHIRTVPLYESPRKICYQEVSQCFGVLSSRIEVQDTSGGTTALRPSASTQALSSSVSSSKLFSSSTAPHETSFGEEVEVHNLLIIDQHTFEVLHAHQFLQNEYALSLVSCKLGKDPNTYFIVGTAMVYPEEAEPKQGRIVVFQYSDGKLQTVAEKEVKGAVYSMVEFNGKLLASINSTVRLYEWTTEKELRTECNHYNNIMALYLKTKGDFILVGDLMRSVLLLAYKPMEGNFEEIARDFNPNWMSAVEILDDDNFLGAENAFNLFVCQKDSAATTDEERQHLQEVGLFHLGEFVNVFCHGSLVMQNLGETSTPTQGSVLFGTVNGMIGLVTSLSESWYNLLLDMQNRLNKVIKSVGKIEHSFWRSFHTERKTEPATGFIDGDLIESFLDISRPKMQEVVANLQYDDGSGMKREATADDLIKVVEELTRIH
T2 sequence (Q9UKT9 whole entry): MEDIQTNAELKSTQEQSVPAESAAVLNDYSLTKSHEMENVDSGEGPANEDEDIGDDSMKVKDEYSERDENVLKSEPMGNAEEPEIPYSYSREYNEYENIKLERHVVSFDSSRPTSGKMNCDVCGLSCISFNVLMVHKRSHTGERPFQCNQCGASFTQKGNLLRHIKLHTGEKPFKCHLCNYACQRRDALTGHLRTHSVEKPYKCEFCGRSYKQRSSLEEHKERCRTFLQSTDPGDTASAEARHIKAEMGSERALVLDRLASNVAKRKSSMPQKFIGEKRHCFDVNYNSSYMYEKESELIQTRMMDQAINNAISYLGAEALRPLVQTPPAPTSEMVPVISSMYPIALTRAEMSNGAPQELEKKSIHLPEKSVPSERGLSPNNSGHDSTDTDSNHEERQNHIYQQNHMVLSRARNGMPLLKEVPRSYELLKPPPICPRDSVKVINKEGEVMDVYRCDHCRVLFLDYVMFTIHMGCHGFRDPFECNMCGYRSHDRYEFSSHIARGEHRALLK
T2 sequence (Q96SW2 whole entry): as the sequence (Q96SW2 whole entry) above
T2 sequence (Q16531 whole entry partner): as the sequence (Q16531 whole entry partner) above
T6 sequence (Q13422 whole entry): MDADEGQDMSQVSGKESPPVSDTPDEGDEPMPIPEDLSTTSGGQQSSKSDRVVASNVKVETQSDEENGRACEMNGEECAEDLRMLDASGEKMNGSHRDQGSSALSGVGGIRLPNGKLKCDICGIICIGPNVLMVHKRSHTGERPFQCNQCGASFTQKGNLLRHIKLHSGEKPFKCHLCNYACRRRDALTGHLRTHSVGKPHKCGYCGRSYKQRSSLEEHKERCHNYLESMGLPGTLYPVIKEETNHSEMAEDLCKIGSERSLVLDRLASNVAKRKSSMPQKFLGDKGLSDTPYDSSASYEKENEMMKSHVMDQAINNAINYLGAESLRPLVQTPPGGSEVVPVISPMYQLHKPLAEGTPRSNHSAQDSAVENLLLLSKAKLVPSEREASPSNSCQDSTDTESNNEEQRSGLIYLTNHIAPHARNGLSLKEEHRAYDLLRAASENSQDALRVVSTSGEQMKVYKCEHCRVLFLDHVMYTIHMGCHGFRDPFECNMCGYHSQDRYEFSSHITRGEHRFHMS
T6 sequence (Q96SW2 whole entry): as the sequence (Q96SW2 whole entry) above
T6 sequence (Q16531 whole entry partner): as the sequence (Q16531 whole entry partner) above
T1 sequence (P48729 whole entry): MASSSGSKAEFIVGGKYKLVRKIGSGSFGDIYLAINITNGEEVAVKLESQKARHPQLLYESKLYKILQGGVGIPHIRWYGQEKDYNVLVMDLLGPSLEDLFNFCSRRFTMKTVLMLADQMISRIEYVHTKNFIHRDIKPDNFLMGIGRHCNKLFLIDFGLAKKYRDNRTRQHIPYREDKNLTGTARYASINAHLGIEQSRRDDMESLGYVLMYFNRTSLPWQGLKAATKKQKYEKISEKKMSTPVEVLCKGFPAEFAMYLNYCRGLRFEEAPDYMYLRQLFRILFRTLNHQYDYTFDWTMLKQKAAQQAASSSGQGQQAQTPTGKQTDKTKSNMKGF
T1 sequence (Q96SW2 whole entry): as the sequence (Q96SW2 whole entry) above
T1 sequence (Q16531 whole entry partner): as the sequence (Q16531 whole entry partner) above
T5 sequence (P15170 whole entry): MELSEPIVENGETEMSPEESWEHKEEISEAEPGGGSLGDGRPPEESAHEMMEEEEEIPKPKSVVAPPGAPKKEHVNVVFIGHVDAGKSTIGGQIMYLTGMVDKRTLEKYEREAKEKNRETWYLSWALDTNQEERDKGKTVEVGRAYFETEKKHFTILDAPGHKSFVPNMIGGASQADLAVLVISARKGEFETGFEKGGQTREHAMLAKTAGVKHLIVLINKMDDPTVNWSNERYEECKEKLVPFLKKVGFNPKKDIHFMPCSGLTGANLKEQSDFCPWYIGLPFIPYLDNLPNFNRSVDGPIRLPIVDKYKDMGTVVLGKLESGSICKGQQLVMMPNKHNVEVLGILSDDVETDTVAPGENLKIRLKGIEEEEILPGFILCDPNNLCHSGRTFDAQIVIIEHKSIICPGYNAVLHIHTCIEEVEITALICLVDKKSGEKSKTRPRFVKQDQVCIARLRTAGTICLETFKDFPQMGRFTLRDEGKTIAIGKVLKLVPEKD
T5 sequence (Q96SW2 whole entry): as the sequence (Q96SW2 whole entry) above
T5 sequence (Q16531 whole entry partner): as the sequence (Q16531 whole entry partner) above

Take `O=C1CCN(N2Cc3cc(CN4CCN(c5ccc(F)cc5)CC4)ccc3C2=O)C(=O)N1` [GT-06702, 1-(5-((4-(4-fluorophenyl)piperazin-1-yl)methyl)-1-oxoisoindolin-2-yl)dihydropyrimidine-2,4(1H,3H)-dione]: in assay [1], the “CK1α substrate protein remaining %” value was “A ("A" is defined as 0% ≤ substrate protein remaining % ≤ 80%)”. The “IKZF3 substrate protein remaining %” value in assay [2] is listed as “B ("B" is defined as 80%< substrate protein remaining %≤ 100%)”. The IC50 in assay [3] is 500 to 1000 nM. In assay [4], the “WEE1 substrate protein remaining %” value is recorded as “B ("B" is defined as 80%< substrate protein remaining %≤ 100%)”. Further, in assay [5], the “IKZF2 substrate protein remaining %” value is on record as “B ("B" is defined as 80%< substrate protein remaining %≤ 100%)”. In addition, in assay [6], the “GSPT1 substrate protein remaining %” value is “A ("A" is defined as 0% ≤ substrate protein remaining % ≤ 80%)”. The “IKZF1 substrate protein remaining %” value in assay [7] was “B ("B" is defined as 80%< substrate protein remaining %≤ 100%)”.

With `O=C1CCN(N2Cc3cc(CN4CCN(c5ccccc5Cl)CC4)ccc3C2=O)C(=O)N1` [GT-06703, 1-(5-((4-(2-chlorophenyl)piperazin-1-yl)methyl)-1-oxoisoindolin-2-yl)dihydropyrimidine-2,4(1H,3H)-dione], the “CK1α substrate protein remaining %” value in assay [1] was “A ("A" is defined as 0% ≤ substrate protein remaining % ≤ 80%)”. In addition, in assay [2], the “IKZF3 substrate protein remaining %” value is on record as “B ("B" is defined as 80%< substrate protein remaining %≤ 100%)”. For the same compound, the IC50 in assay [3] lay within 500 to 1000 nM. Further, the “WEE1 substrate protein remaining %” value in assay [4] is given as “B ("B" is defined as 80%< substrate protein remaining %≤ 100%)”. In addition, the “IKZF2 substrate protein remaining %” value in assay [5] is recorded as “B ("B" is defined as 80%< substrate protein remaining %≤ 100%)”. The “GSPT1 substrate protein remaining %” value in assay [6] is reported as “A ("A" is defined as 0% ≤ substrate protein remaining % ≤ 80%)”. In assay [7], the “IKZF1 substrate protein remaining %” value is reported as “B ("B" is defined as 80%< substrate protein remaining %≤ 100%)”.

Regarding `O=C1CCN(N2Cc3cc(CN4CCN(c5ccc(Cl)cc5)CC4)ccc3C2=O)C(=O)N1` [GT-06765, 1-(5-((4-(4-chlorophenyl)piperazin-1-yl)methyl)-1-oxoisoindolin-2-yl)dihydropyrimidine-2,4(1H,3H)-dione], the “CK1α substrate protein remaining %” value in assay [1] is “A ("A" is defined as 0% ≤ substrate protein remaining % ≤ 80%)”. In assay [2], the “IKZF3 substrate protein remaining %” value is “B ("B" is defined as 80%< substrate protein remaining %≤ 100%)”. Further, the IC50 in assay [3] lay within 500 to 1000 nM. The “WEE1 substrate protein remaining %” value in assay [4] is on record as “B ("B" is defined as 80%< substrate protein remaining %≤ 100%)”. In assay [5], the “IKZF2 substrate protein remaining %” value was “B ("B" is defined as 80%< substrate protein remaining %≤ 100%)”. For the same compound, the “GSPT1 substrate protein remaining %” value in assay [6] is “B ("B" is defined as 80%< substrate protein remaining %≤ 100%)”. Further, the “IKZF1 substrate protein remaining %” value in assay [7] is given as “B ("B" is defined as 80%< substrate protein remaining %≤ 100%)”.

On to `O=C1CCN(N2Cc3cc(CN4CCN(c5ccccc5Br)CC4)ccc3C2=O)C(=O)N1` [GT-06766, 1-(5-((4-(2-bromophenyl)piperazin-1-yl)methyl)-1-oxoisoindolin-2-yl)dihydropyrimidine-2,4(1H,3H)-dione], for which the “CK1α substrate protein remaining %” value in assay [1] is listed as “A ("A" is defined as 0% ≤ substrate protein remaining % ≤ 80%)”. Besides, the “IKZF3 substrate protein remaining %” value in assay [2] is reported as “A ("A" is defined as 0% ≤ substrate protein remaining % ≤ 80%)”. Moreover, the IC50 in assay [3] was 500 to 1000 nM. In assay [4], the “WEE1 substrate protein remaining %” value is listed as “A ("A" is defined as 0% ≤ substrate protein remaining % ≤ 80%)”. For the same compound, the “IKZF2 substrate protein remaining %” value in assay [5] is reported as “A ("A" is defined as 0% ≤ substrate protein remaining % ≤ 80%)”. Moreover, the “GSPT1 substrate protein remaining %” value in assay [6] is listed as “A ("A" is defined as 0% ≤ substrate protein remaining % ≤ 80%)”. Also, in assay [7], the “IKZF1 substrate protein remaining %” value is on record as “A ("A" is defined as 0% ≤ substrate protein remaining % ≤ 80%)”.

`O=C1CCN(N2Cc3cc(CN4CCN(c5cc(Cl)ccc5Cl)CC4)ccc3C2=O)C(=O)N1` [GT-06773, 1-(5-((4-(2,5-dichlorophenyl)piperazin-1-yl)methyl)-1-oxoisoindolin-2-yl)dihydropyrimidine-2,4(1H,3H)-dione]: the “CK1α substrate protein remaining %” value in assay [1] is “A ("A" is defined as 0% ≤ substrate protein remaining % ≤ 80%)”. The “IKZF3 substrate protein remaining %” value in assay [2] is listed as “A ("A" is defined as 0% ≤ substrate protein remaining % ≤ 80%)”. The IC50 in assay [3] lay within 100 to 300 nM. Moreover, the “WEE1 substrate protein remaining %” value in assay [4] is given as “A ("A" is defined as 0% ≤ substrate protein remaining % ≤ 80%)”. In assay [5], the “IKZF2 substrate protein remaining %” value was “A ("A" is defined as 0% ≤ substrate protein remaining % ≤ 80%)”. The “GSPT1 substrate protein remaining %” value in assay [6] was “A ("A" is defined as 0% ≤ substrate protein remaining % ≤ 80%)”. Further, the “IKZF1 substrate protein remaining %” value in assay [7] was “B ("B" is defined as 80%< substrate protein remaining %≤ 100%)”.

Take `O=C1CCN(N2Cc3cc(CN4CCN(c5cccc(F)c5F)CC4)ccc3C2=O)C(=O)N1` [GT-06777, 1-(5-((4-(2,3-difluorophenyl)piperazin-1-yl)methyl)-1-oxoisoindolin-2-yl)dihydropyrimidine-2,4(1H,3H)-dione]: the “CK1α substrate protein remaining %” value in assay [1] was “A ("A" is defined as 0% ≤ substrate protein remaining % ≤ 80%)”. The “IKZF3 substrate protein remaining %” value in assay [2] was “B ("B" is defined as 80%< substrate protein remaining %≤ 100%)”. Further, in assay [3], the IC50 was 300 to 500 nM. Besides, the “WEE1 substrate protein remaining %” value in assay [4] was “A ("A" is defined as 0% ≤ substrate protein remaining % ≤ 80%)”. In assay [5], the “IKZF2 substrate protein remaining %” value is on record as “A ("A" is defined as 0% ≤ substrate protein remaining % ≤ 80%)”. For the same compound, the “GSPT1 substrate protein remaining %” value in assay [6] is recorded as “A ("A" is defined as 0% ≤ substrate protein remaining % ≤ 80%)”. Also, the “IKZF1 substrate protein remaining %” value in assay [7] was “B ("B" is defined as 80%< substrate protein remaining %≤ 100%)”.

On to `O=C1CCN(N2Cc3cc(CN4CCC(c5ccccc5)CC4)ccc3C2=O)C(=O)N1` [GT-06884, 1-(1-oxo-5-((4-phenylpiperidin-1-yl)methyl)isoindolin-2-yl)dihydropyrimidine-2,4(1H,3H)-dione], for which the “CK1α substrate protein remaining %” value in assay [1] was “B ("B" is defined as 80%< substrate protein remaining %≤ 100%)”. For the same compound, in assay [2], the “IKZF3 substrate protein remaining %” value is listed as “B ("B" is defined as 80%< substrate protein remaining %≤ 100%)”. In assay [3], the IC50 was 500 to 1000 nM. In assay [4], the “WEE1 substrate protein remaining %” value is “B ("B" is defined as 80%< substrate protein remaining %≤ 100%)”. Further, the “IKZF2 substrate protein remaining %” value in assay [5] is recorded as “B ("B" is defined as 80%< substrate protein remaining %≤ 100%)”. In addition, in assay [6], the “GSPT1 substrate protein remaining %” value is “A ("A" is defined as 0% ≤ substrate protein remaining % ≤ 80%)”. Besides, the “IKZF1 substrate protein remaining %” value in assay [7] is “B ("B" is defined as 80%< substrate protein remaining %≤ 100%)”.

As for `O=C1CCN(N2Cc3cc(CN4CCC(c5cccc(Br)c5)CC4)ccc3C2=O)C(=O)N1` [GT-06885, 1-(5-((4-(3-bromophenyl)piperidin-1-yl)methyl)-1-oxoisoindolin-2-yl)dihydropyrimidine-2,4(1H,3H)-dione], in assay [1], the “CK1α substrate protein remaining %” value is on record as “B ("B" is defined as 80%< substrate protein remaining %≤ 100%)”. In addition, the “IKZF3 substrate protein remaining %” value in assay [2] was “B ("B" is defined as 80%< substrate protein remaining %≤ 100%)”. In assay [3], the IC50 lay within 100 to 300 nM. Moreover, the “WEE1 substrate protein remaining %” value in assay [4] was “B ("B" is defined as 80%< substrate protein remaining %≤ 100%)”. In addition, the “IKZF2 substrate protein remaining %” value in assay [5] is listed as “A ("A" is defined as 0% ≤ substrate protein remaining % ≤ 80%)”. Further, the “GSPT1 substrate protein remaining %” value in assay [6] is “A ("A" is defined as 0% ≤ substrate protein remaining % ≤ 80%)”. The “IKZF1 substrate protein remaining %” value in assay [7] is “A ("A" is defined as 0% ≤ substrate protein remaining % ≤ 80%)”.
